Where two headings read alike, the source gives them in different places.

We go through 29 compounds from patent US8067600B2, “Histone deacetylase inhibitors and methods of use thereof” (Georgetown University, priority 2003, dated 2011).

Series [1] deals with SQ-20B cells. The series can be described thus: Radiation clonogenic survival assay (radiation sensitization). Set-up: α / β: unit not given here. To be noted: drug at IC50 concentration for 24 h, then graded gamma radiation; for α / β: linear quadratic model; for Do in SQ-20B Cells (Gy): single hit multi-target model, Do without sensitizer 2.4 Gy. The format is cell-based, human. The procedure:
To test the ability of the Compounds of the Invention to sensitize cells to radiation, we used radiation resistant squamous carcinoma cell line, SQ-20B, for initial radiosensitization experiments. SQ-20B is extremely resistant to ionizing radiation (Do=2.4 Gy in the absence of radiation sensitizers). Briefly, logarithmically growing SQ-20B cells were treated with a drug compound at the IC50 concentration (determined using the clonogenic survival assay illustrated in Example 21) for 24 h and then exposed to graded dose of gamma radiation. Clonogenic survivals were determined and fit to the single hit multi-target and the linear quadratic models.
The shape of radiation survival curves are determined by using either the single-hit multitarget model or the linear-quadratic model. The multitarget model is used to describe the radiation sensitivity of cells defined by the terminal slope of the radiation survival curve, which is referred to as Do. The steeper the slope, the smaller is the value of Do and the more radiation sensitive is the cellular response. Alternatively, a less steep slope results in a larger Do and a more resistant radiation response. The linear-quadratic model is also used to describe the radiation sensitivity defined by two components to cell killing by radiation: one is proportional to dose (αD) and the other is proportional to the square of the dose (βD^2). Thus, the dose at which the linear and quadratic components are equal is the ratio α/β.
Shown in Table 4 are the results of selected compounds of the invention in the radiation clonigenic survival assay.

The subject of series [2] is HDAC. Kind of series: HDAC activity inhibition assay, HeLa nuclear extracts, Fluor de Lys substrate. To be noted: HeLa nuclear extract, 37° C., 15 min, read-out: 50% HDAC activity inhibition. The format is biochemical. The procedure: For each test sample the corresponding assay reaction was performed in triplicate. […] For the selected Compounds of the Invention, samples at the following concentrations were prepared and tested: 1 μM, 5 μM, 10 μM, 100 μM and 1 mM.

For series [3], the system named is SQ-20B cells.
Protocol: (§3) For each concentration indicated, individual T25 flasks were seeded with the following number of SQ-20B cells: for no drug, 10 μM and 50 μM drug concentrations, separate T25 flasks were each seeded with 100 cells; for 100 μM and 300 μM drug concentrations, separate T25 flasks were each seeded with 200 cells each; and for 500 μM and 1 mM drug concentrations, separate T25 flasks were each seeded with 300 cells each. A Levy Hemacytometer (Hausser Scientific) was used to count the cells in stock suspension. Serial dilutions of stock suspension were performed to obtain the proper concentration for cell seeding. To conduct the cytotoxicity study the SQ20B cells were first seeded under the appropriate treatment specifications and allowed to settle for 24 hr in a tissue culture incubator set at 37° C. and 5% CO2. Cells were treated with their corresponding drugs for 24 hr and then washed with three rinses of PBS (10 mL per rinse) and provided with new media. The cells were then further incubated for colony formation and the colonies were stained using a staining solution consisting of: 5 g Crystal Violet, 700 mL methanol and 300 mL dH2O. The flasks were then destained with three rinses in cold water. After the third rinse the stained colonies were counted and the corresponding IC50 for each drug was calculated.
For series [4], the system named is SQ-20B cells. Kind of series: Cytotoxicity in SQ-20B cells (colony formation). To be noted: read-out: Cytotoxicity in SQ-20B cells (IC50); 24 hr drug treatment, colony formation.
Protocol: as §3
Series [5] has as its system HDAC. The series can be described thus: In vitro HDAC inhibitory activity using fluor-Lys as the substrate (BIOMOL). In kind it is biochemical. The note with it: for IC50: read-out: 50% HDAC Activity Inhibition. The procedure:
The in vitro HDAC inhibitory activity of these compounds was determined by using fluor-Lys as the substrate (BIOMOL).

For series [6], the system named is squamous cancer cells (SQ-20B). Kind of series: Cytotoxicity following 24 h exposure, SQ-20B (FIG. 2). In kind it is cell-based, human. The note with it: squamous carcinoma cells (SQ-20B). The method, then: (§1) FIG. 2 depicts graphically the cytotoxicities of various compounds of the invention following 24 h exposure of human breast cancer cells (MCF-7) and squamous cancer cells (SQ-20B).
(§2) To test the biological effects of the compounds of this and the previous Example, cytotoxicities were determined following 24 h exposure of human breast cancer cells (MCF-7) and squamous cancer cells (SQ-20B) to three compounds (4g, 4c and 10a). FIG. 2.

Series [7] has as its system human breast cancer cells (MCF-7). The series can be described thus: Cytotoxicity following 24 h exposure, MCF-7 (FIG. 2). The format is cell-based. The note with it: breast carcinoma cells (MCF-7). The method, then:
as §1, §2

The nature of series [8]: Cytotoxicity in SQ-20B cells (colony formation). To be noted: human, SQ-20B squamous carcinoma cells.
Protocol: as §3

Regarding “4-[3-(4-Dimethylamino-benzyl)-ureido]-N-hydroxy-butyramide [Compound 2]”, in the series with SQ-20B cells [1], the α was determined as 0.1681, the β came to 0.03301 and the “Do in SQ-20B Cells (Gy)” value stood at 1.62 Gy. Moreover, the IC50 in the series on HDAC [2] was determined as 800 nM. Also, the IC50 in the series with SQ-20B cells [3] came to 50000 nM.
As for “5-[3-(4-dimethylamino-benzyl)-ureido]-pentanoic Acid Hydroxyamide [Compound 3]”, the IC50 with SQ-20B cells [4] amounted to 25000 nM. For the same compound, in the series with SQ-20B cells [1], the α is recorded as 0.2420, the β is reported as 0.02486 and the “Do in SQ-20B Cells (Gy)” value was determined as 1.72 Gy. Moreover, the IC50 with HDAC [2] is 800 nM.
In the case of `CN(C)c1ccc(C(=O)NCCCNC(=O)CS)cc1` [Compound 4a, 4-Dimethylamino-N-[3-(2-mercapto-acetylamino)-propyl]-benzamide], the IC50 in the series with HDAC [5] (fluor-Lys substrate (BIOMOL)) is 800 nM.
Take `CN(C)c1ccc(C(=O)NCCCCNC(=O)CS)cc1` [Compound 4b, 4-Dimethylamino-N-[4-(2-mercapto-acetylamino)-butyl]-benzamide]: the IC50 with HDAC [5] (fluor-Lys substrate (BIOMOL)) was determined as 4700 nM.
For `CN(C)c1ccc(C(=O)NCCCCCNC(=O)CS)cc1` [Compound 4c, 4-Dimethylamino-N-[5-(2-mercapto-acetylamino)-pentyl]-benzamide], the “cytotoxicities (in words)” value in series [6] and in series [7] was “dose-dependent cytotoxicities” in each case. In the series on HDAC [5], the IC50 was 200 nM.
For the compound `CN(C)c1ccc(C(=O)NCCCCCCNC(=O)CS)cc1` [Compound 4d, 4-Dimethylamino-N-[6-(2-mercapto-acetylamino)-hexyl]-benzamide], the IC50 in the series on HDAC [5] (fluor-Lys substrate (BIOMOL)) came to 450 nM.
Regarding `O=C(CS)NCCCNC(=O)c1ccc(-c2ccccc2)cc1` [Compound 4e, Biphenyl-4-carboxylic acid [3-(2-mercapto-acetylamino)-propyl]-amide], the IC50 with HDAC [5] (fluor-Lys substrate (BIOMOL)) was determined as 800 nM.
The same measure, in the same setting: as for `O=C(CS)NCCCCNC(=O)c1ccc(-c2ccccc2)cc1` [Compound 4f, Biphenyl-4-carboxylic acid [4-(2-mercapto-acetylamino)-butyl]-amide], the figure is 13000 nM.
For `O=C(CS)NCCCCCNC(=O)c1ccc(-c2ccccc2)cc1` [Compound 4g, Biphenyl-4-carboxylic acid [5-(2-mercapto-acetylamino)-pentyl]-amide], in the series on HDAC [5] (fluor-Lys substrate (BIOMOL)), the IC50 was determined as 550 nM.
On the same count and under the same terms, the figure for `O=C(CS)NCCCCCNC(=O)c1ccccc1` [Compound 4h, N-[5-(2-Mercapto-acetylamino)-pentyl]-benzamide] is 1100 nM; for `O=C(CS)NCCCCCCNC(=O)c1ccccc1` [Compound 4i, N-[6-(2-Mercapto-acetylamino)-hexyl]-benzamide] it is 900 nM.
As for `O=C(CS)NCCCCCCNC(=O)CS` [Compound 4j, 2-Mercapto-N-[6-(2-mercapto-acetylamino)-hexyl]-acetamide], the IC50 in the series on HDAC [5] (fluor-Lys substrate (BIOMOL)) was found to be 10000 nM.
Turning to `CN(C)c1ccc(C(=O)NCc2ccc(CNC(=O)CS)cc2)cc1` [Compound 4k, 4-Dimethylamino-N-{4-[(2-mercapto-acetylamino)-methyl]-benzyl}-benzamide], in the series with HDAC [5] (fluor-Lys substrate (BIOMOL)), the “in vitro HDAC inhibitory activity (in words)” value is given as “comparable HDAC inhibitory activity” and the IC50 stood at 200 nM.
For `O=C(CS)NCCCCCNC(=O)c1cnc2ccccc2c1` [Compound 4l, Quinoline-3-carboxylic acid [5-(2-mercapto-acetylamino)-pentyl]-amide], in the series on HDAC [5] (fluor-Lys substrate (BIOMOL)), the IC50 was 250 nM.
With `O=C(CS)NCCCCCNC(=O)c1cccc2cccnc12` [Compound 4m, Quinoline-8-carboxylic acid [5-(2-mercapto-acetylamino)-pentyl]-amide], the IC50 in the series with HDAC [5] (fluor-Lys substrate (BIOMOL)) came out at 400 nM.
As to `CN(C)c1ccc(CNC(=O)NCCCCCCC(=O)NO)cc1` [Compound 5, 7-[3-(4-dimethylamino-benzyl)-ureido]-heptanoic Acid Hydroyxamide], in series [8], the IC50 at 24 h is 50000 nM. Also, in the series with SQ-20B cells [1], the α worked out at 0.1978, the β worked out at 0.02561 and the “Do in SQ-20B Cells (Gy)” value worked out at 1.78 Gy. Moreover, in the series on HDAC [2], the IC50 stood at 1000 nM.
Compound `CN(C)c1ccc(CNC(=O)NCCCCCCCC(=O)NO)cc1` [Compound 6, 8-[3-(4-dimethylamino-benzyl)-ureido]-octanoic Acid Hydroxyamide] returned an IC50 at 24 h in series [8] of 50000 nM. For the same compound, in the series on SQ-20B cells [1], the α is given as 0.2846, the β is 0.01761 and the “Do in SQ-20B Cells (Gy)” value turned out to be 1.94 Gy. Moreover, the IC50 with HDAC [2] is 700 nM.
For `CN(C)c1ccc(NC(=O)NCCCCCCC(=O)NO)cc1` [Compound 7, 7-[3-(4-dimethylamino-phenyl)-ureido]-heptanoic Acid Hydroxyamide] the same measures were 10000 nM, 0.1391, 0.03335, 1.57 Gy and 700 nM.
In series [8], `O=C(CCCCCNC(=O)NC12CC3CC(CC(C3)C1)C2)NO` [Compound 8, 6-(3-Adamantan-1-yl-ureido)-hexanoic Acid Hydroxyamide] had an IC50 at 24 h of 50000 nM. For the same compound, in the series on SQ-20B cells [1], the α worked out at 0.2378, the β was 0.02282 and the “Do in SQ-20B Cells (Gy)” value was determined as 1.78 Gy. For the same compound, the IC50 in the series on HDAC [2] amounted to 800 nM.
Take `O=C(CS)NCCCCCNC(=O)Nc1ccccc1` [Compound 9, 2-Mercapto-N-[5-(3-phenyl-ureido)-pentyl]-acetamide]: the IC50 in the series with HDAC [2] was found to be 900 nM.
In turn, `O=C(CS)NCCCCCCNC(=O)Nc1ccccc1` [Compound 10, 2-Mercapto-N-[6-(3-phenyl-ureido)-hexyl]-acetamide] returned an IC50 at 24 h in series [8] of 50000 nM. Also, in the series with SQ-20B cells [1], the α was 0.1135, the β amounted to 0.01558 and the “Do in SQ-20B Cells (Gy)” value was 2.54 Gy. Besides, the IC50 in the series with HDAC [2] turned out to be 900 nM.
Turning to `O=C(CS)NCCCCCNC(=O)NCc1ccccc1` [Compound 11, N-[5-(3-benzyl-ureido)-pentyl]-2-mercapto-acetamide], the IC50 with HDAC [2] was found to be 1600 nM.
As to `O=C(CS)NCCCCCCNC(=O)c1ccccc1` [Compound 21], in the series on HDAC [2], the IC50 worked out at 1600 nM.
For `CN(C)c1ccc(C(=O)NCCCCCCNC(=O)CS)cc1` [Compound 22], the IC50 in the series on HDAC [2] came out at 800 nM.
In the case of `O=C(CS)NCCCCCNC(=O)c1ccc(-c2ccccc2)cc1` [Compound 23], the IC50 in the series on HDAC [2] worked out at 750 nM.
On to `CN(C)c1ccc(C(=O)NCCCCCNC(=O)CS)cc1` [Compound 24], for which the IC50 in the series on HDAC [2] came out at 800 nM.
Consider `O=C(CS)NCCCCCNC(=O)c1ccccc1` [Compound 25], for which the IC50 in the series with HDAC [2] came out at 1000 nM.
Regarding `O=C(CCCCCCC(=O)Nc1ccccc1)NO` [SAHA, suberoylanilide hydroxamic acid, reference compound], in the series on SQ-20B cells [1], the α was 0.01197, the β was 0.03152 and the “Do in SQ-20B Cells (Gy)” value worked out at 1.88 Gy.
Regarding `CC(/C=C/C(=O)NO)=C\[C@@H](C)C(=O)c1ccc(N(C)C)cc1` [TSA, 7-(4-(dimethylamino)phenyl)-n-hydroxy-4,6-dimethyl-7-oxo-2,4-heptadienamide, reference compound], in series [8], the IC50 at 24 h was found to be 200 nM. In the series with SQ-20B cells [1], the α came out at 0.1260, the β worked out at 0.03059 and the “Do in SQ-20B Cells (Gy)” value amounted to 1.65 Gy.
